# According to patent US9017956B2, “Use of the genes in the Hog, Ras and cAMP pathway for treatment of fungal infection” (Nutrex Technology Co., Ltd., priority 2009, dated 2015):
# “Also recorded” adds a separate entry of the source.
# Legend:
# [1] = system: C. neoformans serotype A H99 strain and its deletion mutants; test: Antifungal drug sensitivity test: serially diluted cells spotted on YPD agar containing the drug; assay type: cell-based, Cryptococcus neoformans; conditions: for drug sensitivity of hog1Δ mutant compared to WT / drug sensitivity of pbs2Δ mutant compared to WT / drug sensitivity of skn7Δ mutant compared to WT / drug sensitivity of ssk1Δ mutant compared to WT / drug sensitivity of ssk2Δ mutant compared to WT / drug sensitivity of tco2Δ mutant compared to WT: YPD agar, 30° C., 72 h
# Procedure: (§1) Each strain was incubated overnight at 30° C. in YPD medium, washed, serially diluted (1 to 10^4 dilutions) in dH2O, and spotted (3 μl) onto solid YPD medium containing indicated concentrations of stress-inducing agents or antifungal drugs as previously described in “Bahn Y S, Kojima K, Cox G M, Heitman J (2005) Mol Biol Cell 16: 2285-2300.” and “Bahn Y S, Kojima K, Cox G M, Heitman J (2006) Mol Biol Cell 17: 3122-3135”. To examine antifungal drug sensitivity, the cells were spotted on agar-solid YPD media containing amphotericin B (Sigma), fluconazole (Sigma), itraconazole (Sigma), ketoconazole (Sigma) and fludioxonil. Then spotted cells were incubated at 30° C. for 2-4 days and photographed.
# [2] = system: C. neoformans serotype D strains JEC21 and B3501 and their deletion mutants; test: as above; assay type: cell-based, Cryptococcus neoformans
# Procedure: as §1
smiles,measurement,setting,value
C[C@@H]1[C@H](O)[C@@H](C)/C=C/C=C/C=C/C=C/C=C/C=C/C=C/[C@H](O[C@@H]2O[C@H](C)[C@@H](O)[C@H](N)[C@@H]2O)C[C@@H]2O[C@](O)(C[C@@H](O)C[C@@H](O)[C@H](O)CC[C@@H](O)C[C@@H](O)CC(=O)O[C@H]1C)C[C@H](O)[C@H]2C(=O)O [amphotericin B],drug sensitivity of aca1Δ mutant compared to WT,"[1]; aca1Δ, H99 background",slightly higher AmpB susceptibility
same,drug sensitivity of cac1Δ mutant compared to WT,[1]; H99 background,hypersensitive
same,drug sensitivity of cac1Δ mutant compared to WT,"[1]; H99 background, listed as AmpB",much higher AmpB-sensitivity
same,drug sensitivity of ena1Δ mutant,[1]; ena1Δ,did not show high sensitivity
same,drug sensitivity of ena1Δ nha1Δ double mutant,[1]; ena1Δ nha1Δ,considerably increased sensitivity
same,drug sensitivity of gpa1Δ mutant compared to WT,[1]; H99 background,hypersensitive
same,drug sensitivity of gpa1Δ mutant compared to WT,"[1]; H99 background, listed as AmpB",much higher AmpB-sensitivity
same,drug sensitivity of hog1Δ cac1Δ double mutant,[1]; compared to single mutants,even more sensitive
same,drug sensitivity of hog1Δ pka1Δ double mutant,"[1]; hog1Δ pka1Δ, compared to single mutants",even more sensitive
same,drug sensitivity of hog1Δ mutant compared to WT,[1]; H99 background,dramatic hypersensitivity
same,drug sensitivity of hsp12Δ mutant compared to WT,"[1]; hsp12Δ, H99 background",slightly higher susceptibility
same,drug sensitivity of hsp122Δ mutant compared to WT,"[1]; hsp122Δ, H99 background",slightly higher susceptibility
same,drug sensitivity of nha1Δ mutant,[1]; nha1Δ,did not show high sensitivity
same,drug sensitivity of pbs2Δ mutant compared to WT,[1]; H99 background,dramatic hypersensitivity
same,drug sensitivity of pka1Δ mutant compared to WT,[1]; H99 background,hypersensitive
same,drug sensitivity of pka1Δ mutant compared to WT,"[1]; H99 background, listed as AmpB",increased susceptibility
same,drug sensitivity of ras1Δ aca1Δ double mutant,[1]; compared to each single mutant,hypersensitive
same,drug sensitivity of ras1Δ aca1Δ double mutant,"[1]; compared to each single mutant, listed as AmpB",higher AmpB-sensitivity than each single mutant
same,drug sensitivity of ras1Δ cac1Δ double mutant,"[1]; ras1Δ cac1Δ, compared to each single mutant",even higher AmpB susceptibility than each single mutant
same,drug sensitivity of ras1Δ mutant compared to WT,"[1]; ras1Δ, H99 background",higher susceptibility
same,drug sensitivity of ras2Δ mutant compared to WT,"[1]; ras2Δ, H99 background",slightly more sensitive
same,drug sensitivity of skn7Δ mutant compared to WT,[1]; H99 background,WT-levels of resistance
same,drug sensitivity of ssk1Δ mutant compared to WT,[1]; H99 background,dramatic hypersensitivity
same,drug sensitivity of ssk2Δ mutant compared to WT,[1]; H99 background,dramatic hypersensitivity
same,drug sensitivity of tco2Δ mutant compared to WT,[1]; H99 background,hypersensitivity
same,drug resistance of B3501 strain compared to JEC21,[2]; B3501 (Hog1 constitutively phosphorylated),higher resistance
same,drug sensitivity of JEC21 strain,"[2]; JEC21 (Hog1 not constitutively phosphorylated), compared with ssk2Δ mutant in H99 background",hypersensitivity
same,effect of HOG1 mutation on drug sensitivity in JEC21 background,[2]; hog1Δ in JEC21,did not affect sensitivity
same,effect of PBS2 mutation on drug sensitivity in JEC21 background,[2]; pbs2Δ in JEC21,did not affect sensitivity
same,effect of SSK2 mutation on drug sensitivity in B3501 background,[2]; ssk2Δ in B3501,increased the amphotericin B sensitivity
same,effect of SSK2 mutation on drug sensitivity in JEC21 background,[2]; ssk2Δ in JEC21,did not affect sensitivity
CC(=O)N1CCN(c2ccc(OCC3COC(Cn4ccnc4)(c4ccc(Cl)cc4Cl)O3)cc2)CC1 (centres unmarked) [ketoconazole],drug sensitivity of hog1Δ cac1Δ double mutant,[1]; compared to single mutants,hypersensitivity; also recorded: hypersensitive
same,drug sensitivity of hog1Δ mutant compared to WT,[1]; H99 background,hyper-resistance
same,drug sensitivity of pbs2Δ mutant compared to WT,[1]; H99 background,hyper-resistance
same,drug sensitivity of skn7Δ mutant compared to WT,[1]; H99 background,higher resistance
same,drug sensitivity of ssk1Δ mutant compared to WT,[1]; H99 background,hyper-resistance
same,drug sensitivity of ssk2Δ mutant compared to WT,[1]; H99 background,hyper-resistance
same,drug sensitivity of tco2Δ mutant compared to WT,[1]; H99 background,higher resistance
OC(Cn1cncn1)(Cn1cncn1)c1ccc(F)cc1F [fluconazole],drug sensitivity of cac1Δ mutant compared to WT,[1]; H99 background,nearly as resistant
same,drug sensitivity of gpa1Δ mutant compared to WT,[1]; H99 background,nearly as resistant
same,drug sensitivity of hog1Δ cac1Δ double mutant,[1]; compared to single mutants,hypersensitivity; also recorded: hypersensitive
same,drug sensitivity of hog1Δ mutant compared to WT,[1]; H99 background,hyper-resistance
same,drug sensitivity of pbs2Δ mutant compared to WT,[1]; H99 background,hyper-resistance
same,drug sensitivity of pka1Δ pka2Δ double mutant compared to WT,"[1]; pka1Δ pka2Δ, H99 background",nearly as resistant
same,drug sensitivity of pka1Δ mutant compared to WT,[1]; H99 background,nearly as resistant
same,drug sensitivity of pka2Δ mutant compared to WT,"[1]; pka2Δ, H99 background",nearly as resistant
same,drug sensitivity of skn7Δ mutant compared to WT,[1]; H99 background,higher resistance
same,drug sensitivity of ssk1Δ mutant compared to WT,[1]; H99 background,hyper-resistance
same,drug sensitivity of ssk2Δ mutant compared to WT,[1]; H99 background,hyper-resistance
same,drug sensitivity of tco2Δ mutant compared to WT,[1]; H99 background,higher resistance
